# Experimental data as given in US5420140A, “Difluorinated quinolones useful for treating bacterial infections” (Bouchara S.A., priority 1991, dated 1995).
# Like-named read-outs stand apart in the source and are kept apart here.
# Experiments:
# [1] = system: Streptococcus faecalis ATCC 8043; experiment: Determination of MIC and MBC by microdilution method, Streptococcus faecalis ATCC 8043; type: cell-based; conditions: for MBC / MIC: Enterococcus faecalis; for MIC: read-out: Minimal inhibitory concentration (MIC)
# Description: (§1) The compound have been tested towards 7 reference strains:
# Streptococcus faecalis ATCC 8043
# (§2) The preparation of these mother liquors has been performed and vary depending on the molecules as a function of the solubility criterions. Inoculation has been done by adding in each will, 10 μl of a dilution in saline of 18 hours old broth in a brain-heart broth, such as each well contains about 10^6 bacterias/ml. […]
# [2] = system: Staphylococcus aureus ATCC 25923; experiment: Determination of MIC and MBC by microdilution method, Staphylococcus aureus ATCC 25923; type: cell-based; conditions: for MIC / MBC: Staphylococcus aureus; for MIC: ATCC25923, 18 h, read-out: Minimal inhibitory concentration (MIC)
# Description: as §1
# Staphylococcus aureus ATCC 25923
# (§3) The determination of minimal inhibitory concentrations (MIC) has been performed using a microdution method (microplates and inoculator Dynatech) in liquid medium (MUELLER-HINTON broth) under a volume of 100 μl and for a range of concentrations from 128 to 0.06 mg/l, prepared from a mother liquor of antibiotics titrating 512 mg/l. The preparation of these mother liquors has been performed and vary depending on the molecules as a function of the solubility criterions. Inoculation has been done by adding in each will, 10 μl of a dilution in saline of 18 hours old broth in a brain-heart broth, such as each well contains about 10^6 bacterias/ml.
# (§4) The Minimal Inhibitory Concentrations are read as the first concentration of antibiotic which will not give a growth macroscopically detectable after 18 hours incubating at 37°.
# [3] = system: Escherichia coli ATCC 25922; experiment: Determination of MIC and MBC by microdilution method, Escherichia coli ATCC 25922; type: cell-based; conditions: E. coli ATCC 25922; for MIC / MBC: Escherichia coli, ATCC25922; for MIC: read-out: Minimal inhibitory concentration (MIC); for MBC: read-out: Minimal bactericidal concentration (MBC)
# Description: as §1
# Escherichia coli ATCC 25922
# as §3, §4
# [4] = system: S. aureus CB-951; experiment: Determination of MIC and MBC by microdilution method, S. aureus CB-951; type: cell-based, Staphylococcus aureus; conditions: for MIC / MBC: Staphylococcus aureus; for MIC: CB951, 18 h, read-out: Minimal inhibitory concentration (MIC)
# Description: as §1
# Staphylococcus aureus CB 951
# as §3, §4
# [5] = system: Pseudomonas aeruginosa ATCC 22853; experiment: Determination of MIC and MBC by microdilution method, Pseudomonas aeruginosa ATCC 22853; type: cell-based; conditions: for MIC / MBC: Pseudomonas aeruginosa; for MIC: ATCC22853, 18 h, read-out: Minimal inhibitory concentration (MIC)
# Description: as §1
# Pseudomonas aeruginosa ATCC 22853
# as §2
# [6] = system: Acinetobacter Baumanii ATCC 17904; experiment: Determination of MIC and MBC by microdilution method, Acinetobacter; type: cell-based; conditions: for MIC / MBC: Acinetobacter baumannii; for MIC: ATCC17904, 18 h, read-out: Minimal inhibitory concentration (MIC)
# Description: The compound have been tested towards 7 reference strains: […]
# as §3, §4
# [7] = ATCC8043, S. faecalis ATCC 8043, read-out: Minimal bactericidal concentration (MBC)
# [8] = ATCC8043, S. faecalis ATCC 8043, Mueller-Hinton broth, 18 hours at 37°
# [9] = S. aureus ATCC 25923, Mueller-Hinton broth, 18 hours at 37°
# [10] = ATCC25923, S. aureus ATCC 25923, read-out: Minimal bactericidal concentration (MBC)
# [11] = Mueller-Hinton broth, 18 hours at 37°
# [12] = S. aureus CB-951, methicillino, erythromycinolincomycino, pefloxacino resistant, Mueller-Hinton broth, 18 hours at 37°
# [13] = CB951, S. aureus CB-951, methicillino, erythromycinolincomycino, pefloxacino resistant, read-out: Minimal bactericidal concentration (MBC)
# [14] = P. aeruginosa ATCC 22853, Mueller-Hinton broth, 18 hours at 37°
# [15] = ATCC22853, P. aeruginosa ATCC 22853, read-out: Minimal bactericidal concentration (MBC)
# [16] = Acinetobacter Baumanii ATCC 17904, Mueller-Hinton broth, 18 hours at 37°
# [17] = ATCC17904, Acinetobacter Baumanii ATCC 17904, read-out: Minimal bactericidal concentration (MBC)
Structure (SMILES),"MBC [1, 7] [µg/mL]","MIC [1, 8] [µg/mL]","MIC [2, 9] [µg/mL]","MBC [2, 10] [µg/mL]","MIC [3, 11] [µg/mL]",MBC [3] [µg/mL],"MIC [4, 12] [µg/mL]","MBC [4, 13] [µg/mL]","MIC [5, 14] [µg/mL]","MBC [5, 15] [µg/mL]","MIC [6, 16] [µg/mL]","MBC [6, 17] [µg/mL]",further results
"CCn1cc(C(=O)O)c(=O)c2cc(F)c(N3CCC(CNC(=O)CCO)CC3)c(F)c21 [Compound 2, 7-(4-(3-hydroxypropionylaminomethyl)piperidinyl-1) 6,8-difluoro 1-ethyl 4-oxo 1,4-dihydroquinoleinyl-3 carboxylic acid]",4,4,0.5,1,8,8,4,4,> 32,> 32,2,4,
"CCn1cc(C(=O)O)c(=O)c2cc(F)c(N3CCC(CNC(=O)Nc4ccc(Cl)c(Cl)c4)CC3)c(F)c21 [Compound 14, 7-[4-(3,4-dichlorophenyl)aminocarbonylaminomethylpiperidinyl-1] 6,8-difluoro 1-ethyl]",> 16,> 16,2,8,> 16,> 16,16,> 16,> 16,> 16,4,8,
"CCn1cc(C(=O)O)c(=O)c2cc(F)c(N3CCC(CNC(=O)Nc4cccc(F)c4)CC3)c(F)c21 [Compound 13, 7-[4-(3-fluorophenyl)aminocarbonylaminomethylpiperidinyl-1] 6,8-difluoro 1-ethyl]",> 16,> 16,0.12,0.25,> 16,> 16,0.25,0.5,> 16,> 16,0.06,0.06,
"CCn1cc(C(=O)O)c(=O)c2cc(F)c(N3CCC(CNC(=O)Nc4ccc(F)cc4F)CC3)c(F)c21 [Compound 18, 7-[4-(2,4-difluorophenyl)aminocarbonylaminomethylpiperidinyl-1] 6,8-difluoro 1-ethyl]",2,2,≤ 0.12,≤ 0.12,2,4,0.25,0.25,> 16,> 16,≤ 0.12,≤ 0.12,
"CCn1cc(C(=O)O)c(=O)c2cc(F)c(N3CCC(CN)CC3)c(F)c21 [Compound b, 7-(4-aminomethylpiperidinyl-1) 6,8-difluoro 1-ethyl 4-oxo 1,4-dihydroquinoleinyl-3 carboxylic acid]",,,,,,,,,,,,,"Minimal bactericidal concentration (MBC) ([1]; S. faecalis ATCC 8043): 1 µg/mL; Minimal inhibitory concentration (MIC) ([1]; S. faecalis ATCC 8043, Mueller-Hinton broth, 18 hours at 37°): 0,5 μg/ml; Minimal bactericidal concentration (MBC) ([2]; S. aureus ATCC 25923): 0,5 μg/ml; Minimal inhibitory concentration (MIC) [2, 9]: 0,5 μg/ml; Minimal bactericidal concentration (MBC) [3]: 0,5 μg/ml; Minimal inhibitory concentration (MIC) [3, 11]: 0,5 μg/ml; Minimal bactericidal concentration (MBC) ([4]; S. aureus CB-951, methicillino, erythromycinolincomycino, pefloxacino resistant): 4 µg/mL; Minimal inhibitory concentration (MIC) [4, 12]: 4 µg/mL; Minimal bactericidal concentration (MBC) ([5]; P. aeruginosa ATCC 22853): 8 µg/mL; Minimal inhibitory concentration (MIC) [5, 14]: 4 µg/mL; Minimal bactericidal concentration (MBC) ([6]; Acinetobacter Baumanii ATCC 17904): 0,5 μg/ml; Minimal inhibitory concentration (MIC) [6, 16]: 0,5 μg/ml"
"CCn1cc(C(=O)O)c(=O)c2cc(F)c(N3CCC(CNC(=O)Nc4ccc(OC)cc4)CC3)c(F)c21 [Compound 16, 7-[4-(4-methoxyphenyl)aminocarbonylaminomethylpiperidinyl-1] 6,8-difluoro1-ethyl]",16,8,0.06,0.06,16,16,0.5,1,> 16,> 16,0.06,0.03,
"CCn1cc(C(=O)O)c(=O)c2cc(F)c(N3CCC(CNC(=O)Nc4ccccc4F)CC3)c(F)c21 [Compound 19, 7-[4-(2-fluorophenyl)aminocarbonylaminomethylpiperidinyl-1] 6,8-difluoro 1-ethyl]",2,2,,,8,8,0.03,0.06,> 32,> 32,,,
"O=C(O)c1cn(C2CC2)c2cc(N3CCNCC3)c(F)cc2c1=O [Ciprofloxacine, reference compound]",,,,,,,,,,,,,"MIC ([1]; ATCC8043, 18 h): 0.25 µg/mL; MBC ([1]; ATCC8043, read-out: Minimal bactericidal concentration (MBC)): 0.25 µg/mL; MIC [2]: 0.25 µg/mL; MBC ([2]; ATCC25923, read-out: Minimal bactericidal concentration (MBC)): 0.25 µg/mL; MIC [4]: 4 µg/mL; MBC ([4]; CB951, read-out: Minimal bactericidal concentration (MBC)): 4 µg/mL; MIC [5]: 0.12 µg/mL; MBC ([5]; ATCC22853, read-out: Minimal bactericidal concentration (MBC)): 0.25 µg/mL; MIC [6]: 0.06 µg/mL; MBC ([6]; ATCC17904, read-out: Minimal bactericidal concentration (MBC)): 0.06 µg/mL"
"CCn1cc(C(=O)O)c(=O)c2cc(F)c(N3CCC(CNC(=O)Nc4ccc([N+](=O)[O-])cc4)CC3)c(F)c21 [Compound 17, 7-[4-(4-nitrophenyl)aminocarbonylaminomethylpiperidinyl-1] 6,8-difluoro 1-ethyl]",8,4,0.03,0.03,16,> 16,1,1,> 16,> 16,,,
